One assay has as its target T1, DDR2 (Homo sapiens, UniProt Q16832).
T1 construct: purchased Life Technologies
T1 sequence (Q16832 22-855): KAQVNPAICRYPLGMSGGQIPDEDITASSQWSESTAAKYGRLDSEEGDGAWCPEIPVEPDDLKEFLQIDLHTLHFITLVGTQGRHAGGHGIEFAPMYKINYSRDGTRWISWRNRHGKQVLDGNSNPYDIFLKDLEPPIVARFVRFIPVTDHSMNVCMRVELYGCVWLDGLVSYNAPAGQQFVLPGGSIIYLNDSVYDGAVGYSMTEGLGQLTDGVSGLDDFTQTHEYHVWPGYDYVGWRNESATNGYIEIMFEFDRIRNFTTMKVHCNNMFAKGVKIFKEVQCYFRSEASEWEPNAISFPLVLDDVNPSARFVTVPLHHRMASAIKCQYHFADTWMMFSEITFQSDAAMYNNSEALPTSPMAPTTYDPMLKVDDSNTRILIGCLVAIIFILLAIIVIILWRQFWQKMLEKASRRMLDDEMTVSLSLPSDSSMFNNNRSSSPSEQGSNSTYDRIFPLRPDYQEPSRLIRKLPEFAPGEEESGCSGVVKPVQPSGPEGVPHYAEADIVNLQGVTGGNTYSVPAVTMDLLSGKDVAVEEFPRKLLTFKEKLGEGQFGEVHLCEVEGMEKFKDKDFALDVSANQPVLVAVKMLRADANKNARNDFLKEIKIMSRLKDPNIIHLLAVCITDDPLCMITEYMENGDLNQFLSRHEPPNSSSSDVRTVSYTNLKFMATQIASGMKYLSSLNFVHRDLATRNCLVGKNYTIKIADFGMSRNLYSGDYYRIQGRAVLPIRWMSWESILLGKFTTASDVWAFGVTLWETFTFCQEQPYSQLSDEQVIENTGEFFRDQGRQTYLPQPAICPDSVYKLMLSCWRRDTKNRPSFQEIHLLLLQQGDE
Briefly: LanthaScreen Europium Kinase Binding assay, DDR2. The following applies: 5 nM DDR2, 10 nM Kinase Tracer 178, 1 h at rt; Ki from IC50 by Cheng-Prusoff; read-out: Ki DDR2. As for the experimental part:
(§1) DDR1 and DDR2 binding assays were performed using Life Technologies LanthaScreen™ Europium Kinase Binding assay. […] IC50 values were determined in GraphPad Prism 7.0 software, using 4 parameter model: log (inhibitor) vs. response. IC50 values were converted in Ki using the Cheng-Prusoff equation (Ki-IC50/(1+ [Tracer]/Kd).
For orientation: In TR-FRET formats the signal depends on donor and acceptor labels being close together.

The next assay has as its target T2, DDR1 (Homo sapiens, UniProt Q08345).
T2 construct: purchased Carna Biosciences
Briefly: LanthaScreen Europium Kinase Binding assay, DDR1. The following applies: 5 nM DDR1, 20 nM Kinase Tracer 178, 1 h at rt; Ki from IC50 by Cheng-Prusoff; read-out: Ki DDR1. As for the experimental part: as §1

The structures appear in SMILES notation.

T2 sequence (Q08345 19-913): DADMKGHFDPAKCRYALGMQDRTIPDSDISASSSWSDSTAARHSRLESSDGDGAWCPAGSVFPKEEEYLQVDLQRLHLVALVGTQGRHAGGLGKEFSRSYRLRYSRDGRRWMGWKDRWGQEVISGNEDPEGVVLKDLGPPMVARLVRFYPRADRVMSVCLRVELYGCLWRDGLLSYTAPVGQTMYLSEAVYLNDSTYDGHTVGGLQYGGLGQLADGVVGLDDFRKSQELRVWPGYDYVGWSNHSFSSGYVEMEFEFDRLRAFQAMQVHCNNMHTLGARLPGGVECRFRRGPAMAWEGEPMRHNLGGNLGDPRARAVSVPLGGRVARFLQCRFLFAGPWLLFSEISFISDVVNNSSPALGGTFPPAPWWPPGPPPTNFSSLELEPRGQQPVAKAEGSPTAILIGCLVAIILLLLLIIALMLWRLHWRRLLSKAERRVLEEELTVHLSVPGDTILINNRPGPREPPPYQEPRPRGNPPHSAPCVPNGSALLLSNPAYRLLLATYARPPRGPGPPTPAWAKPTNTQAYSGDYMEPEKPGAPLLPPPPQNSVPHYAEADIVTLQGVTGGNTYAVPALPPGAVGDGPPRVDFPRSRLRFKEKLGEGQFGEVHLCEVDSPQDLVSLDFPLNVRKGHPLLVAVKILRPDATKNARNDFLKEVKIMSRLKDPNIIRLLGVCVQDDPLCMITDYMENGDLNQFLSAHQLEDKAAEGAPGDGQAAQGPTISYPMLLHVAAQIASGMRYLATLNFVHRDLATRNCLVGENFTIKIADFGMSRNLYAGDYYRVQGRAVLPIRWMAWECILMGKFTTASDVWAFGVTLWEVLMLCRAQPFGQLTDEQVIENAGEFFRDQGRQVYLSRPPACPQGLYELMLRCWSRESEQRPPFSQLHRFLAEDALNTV

For `CN(C(=O)Nc1cc(C(F)(F)F)cs1)C1CC2(C1)CN(C(=O)c1cnn3ccn(C)c13)C2` [Example 291, 1-methyl-1-(2-(1-methyl-1H-imidazo[1,2-b]pyrazole-7-carbonyl)-2-azaspiro[3.3]heptan-6-yl)-3-(4-(trifluoromethyl)thiophen-2-yl)urea], the Ki (commonly the equilibrium dissociation constant of an inhibitor or competing ligand from its target) was 5 to 25 nM on DDR2 and less than 5 nM on DDR1.

`O=C(Nc1cc(C(F)(F)F)ncn1)OC1CC2(C1)CN(C(=O)c1cnn3ccsc13)C2` [Example 292, 2-(pyrazolo[5,1-b]thiazole-7-carbonyl)-2-azaspiro[3.3]heptan-6-yl(6-(trifluoromethyl)pyrimidin-4-yl)carbamate]: the inhibition constant Ki was 5 to 25 nM at DDR2 and less than 5 nM at DDR1.

With `CC(C)(c1cc(NC(=O)OC2CC3(C2)CN(C(=O)c2cnn4ccsc24)C3)no1)C(F)(F)F` [Example 293, 2-(pyrazolo[5,1-b]thiazole-7-carbonyl)-2-azaspiro[3.3]heptan-6-yl(5-(1,1,1-trifluoro-2-methylpropan-2-yl)isoxazol-3-yl)carbamate], the Ki at DDR2 and at DDR1 was less than 5 nM throughout.

As to `Cn1ccn2ncc(C(=O)N3CC4(CC(OC(=O)Nc5cc(OC(F)(F)F)ccn5)C4)C3)c12` [Example 294, 2-(1-methyl-1H-imidazo[1,2-b]pyrazole-7-carbonyl)-2-azaspiro[3.3]heptan-6-yl(4-(trifluoromethoxy)pyridin-2-yl)carbamate], the Ki on DDR2 and at DDR1 was less than 5 nM each time.

Regarding `Cc1ccc(OC(F)(F)F)cc1NC(=O)OC1CC2(C1)CN(C(=O)c1cnn3ccn(C)c13)C2` [Example 295, 2-(1-methyl-1H-imidazo[1,2-b]pyrazole-7-carbonyl)-2-azaspiro[3.3]heptan-6-yl(2-methyl-5-(trifluoromethoxy)phenyl)carba-mate], the inhibition constant Ki at DDR2 and on DDR1 was less than 5 nM throughout.

As for `Cn1ccn2ncc(C(=O)N3CC4(CC(OC(=O)Nc5cc(C(F)(F)F)ccn5)C4)C3)c12` [Example 296, 2-(1-methyl-1H-imidazo[1,2-b]pyrazole-7-carbonyl)-2-azaspiro[3.3]heptan-6-yl(4-(trifluoromethyl)pyridin-2-yl)carbamate], the inhibitory constant (Ki) on DDR2 is 5 to 25 nM; at DDR1, less than 5 nM.

Regarding `Cn1ccn2ncc(C(=O)N3CC4(CC(OC(=O)Nc5cc(C(F)(F)F)ncn5)C4)C3)c12` [Example 297, 2-(1-methyl-1H-imidazo[1,2-b]pyrazole-7-carbonyl)-2-azaspiro[3.3]heptan-6-yl(6-(trifluoromethyl)pyrimidin-4-yl)carbamate], the Ki at DDR2 was 5 to 25 nM; at DDR1 it was less than 5 nM.

Consider `CCOc1ccc(C(F)(F)F)cc1NC(=O)NC1CC2(C1)CN(C(=O)c1cnn3ccn(C)c13)C2` [Example 298, 1-(2-ethoxy-5-(trifluoromethyl)phenyl)-3-(2-(1-methyl-1H-imidazo[1,2-b]pyrazole-7-carbonyl)-2-azaspiro[3.3]heptan-6-yl)urea], for which the Ki at DDR2 and at DDR1 was less than 5 nM each time.

Turning to `Cn1ccn2ncc(C(=O)N3CC4(CC(OC(=O)Nc5cncc(OC(F)(F)F)c5)C4)C3)c12` [Example 299, 2-(1-methyl-1H-imidazo[1,2-b]pyrazole-7-carbonyl)-2-azaspiro[3.3]heptan-6-yl(5-(trifluoromethoxy)pyridin-3-yl)carbamate], the Ki on DDR2 and on DDR1 was less than 5 nM each time.

Turning to `Cc1cc(C(F)(F)F)cc(NC(=O)N(C)C2CC3(C2)CN(C(=O)c2cnn4ccn(C)c24)C3)n1` [Example 300, 1-methyl-1-(2-(1-methyl-1H-imidazo[1,2-b]pyrazole-7-carbonyl)-2-azaspiro[3.3]heptan-6-yl)-3-(6-methyl-4-(trifluoromethyl)pyridin-2-yl)urea], the inhibitory constant (Ki) at DDR2 is 5 to 25 nM; at DDR1, less than 5 nM.

For the compound `[2H]C([2H])([2H])n1ccn2ncc(C(=O)N3CC4(CC(CC(=O)Nc5cc(OC(F)(F)F)ccn5)C4)C3)c12` [Example 301, 2-(2-(1-(methyl-d3)-1H-imidazo[1,2-b]pyrazole-7-carbonyl)-2-azaspiro[3.3]heptan-6-yl)-N-(4-(trifluoromethoxy)pyridin-2-yl)acetamide], the Ki on DDR2 and on DDR1 was less than 5 nM throughout.

Turning to `O=C(CC1CC2(C1)CN(C(=O)c1cnn3ccn(C(F)F)c13)C2)Nc1cc(OC(F)(F)F)ccn1` [Example 302, 2-(2-(1-(difluoromethyl)-1H-imidazo[1,2-b]pyrazole-7-carbonyl)-2-azaspiro[3.3]heptan-6-yl)-N-(4-(trifluoromethoxy)pyridin-2-yl)acetamide], the inhibition constant Ki on DDR2 and at DDR1 was less than 5 nM each time.

Regarding `Cc1cnc(NC(=O)N(C)C2CC3(C2)CN(C(=O)c2cnn4ccn(C)c24)C3)cc1C(F)(F)F` [Example 303, 1-methyl-1-(2-(1-methyl-1H-imidazo[1,2-b]pyrazole-7-carbonyl)-2-azaspiro[3.3]heptan-6-yl)-3-(5-methyl-4-(trifluoromethyl)pyridin-2-yl)urea], the Ki at DDR2 was 5 to 25 nM; on DDR1 it was less than 5 nM.

As to `O=C(Nc1cncc(C(F)(F)F)c1)NC1CC2(C1)CN(c1cnc3[nH]ncc3c1)C2` [Example 304, 1-(2-(1H-pyrazolo[3,4-b]pyridin-5-yl)-2-azaspiro[3.3]heptan-6-yl)-3-(5-(trifluoromethyl)pyridin-3-yl)urea], the Ki is 5 to 25 nM at DDR2 and less than 5 nM on DDR1.

In the case of `CN(C(=O)Nc1cc(C(F)(F)C(F)(F)F)ccn1)C1CC2(C1)CN(C(=O)c1cnn3ccn(C)c13)C2` [Example 305, 1-methyl-1-(2-(1-methyl-1H-imidazo[1,2-b]pyrazole-7-carbonyl)-2-azaspiro[3.3]heptan-6-yl)-3-(4-(perfluoroethyl)pyridin-2-yl)urea], the Ki on DDR2 was 5 to 25 nM; at DDR1, less than 5 nM.

For the compound `O=C(Nc1cc(C(F)(F)F)cnn1)NC1CC2(C1)CN(c1cnc3[nH]ncc3c1)C2` [Example 306, 1-(2-(1H-pyrazolo[3,4-b]pyridin-5-yl)-2-azaspiro[3.3]heptan-6-yl)-3-(5-(trifluoromethyl)pyridazin-3-yl)urea], the values for the Ki on DDR2 and on DDR1 were 5 to 25 nM and less than 5 nM, respectively.

Consider `Cc1ccc(OC(F)(F)F)cc1NC(=O)NC1CC2(C1)CN(c1cnc3[nH]ncc3c1)C2` [Example 307, 1-(2-(1H-pyrazolo[3,4-b]pyridin-5-yl)-2-azaspiro[3.3]heptan-6-yl)-3-(2-methyl-5-(trifluoromethoxy)phenyl)urea], for which the results for the Ki at DDR2 and at DDR1 were 25 to 100 nM and 5 to 25 nM, respectively.

Regarding `CN(C(=O)Nc1cc(C(F)(F)F)cc(Br)n1)C1CC2(C1)CN(C(=O)c1cnn3ccn(C)c13)C2` [Example 308, 3-(6-bromo-4-(trifluoromethyl)pyridin-2-yl)-1-methyl-1-(2-(1-methyl-1H-imidazo[1,2-b]pyrazole-7-carbonyl)-2-azaspiro[3.3]heptan-6-yl)urea], the inhibition constant (Ki) at DDR2 and at DDR1 was less than 5 nM each time.

`CCc1ncc(C(F)(F)F)cc1NC(=O)NC1CC2(C1)CN(C(=O)c1cnn3ccn(C)c13)C2` [Example 309, 1-(2-ethyl-5-(trifluoromethyl)pyridin-3-yl)-3-(2-(1-methyl-1H-imidazo[1,2-b]pyrazole-7-carbonyl)-2-azaspiro[3.3]heptan-6-yl)urea]: the Ki at DDR2 was 5 to 25 nM; on DDR1, less than 5 nM.

With `CCc1ncc(C(F)(F)F)cc1NC(=O)N(C)C1CC2(C1)CN(C(=O)c1cnn3ccn(C)c13)C2` [Example 310, 3-(2-ethyl-5-(trifluoromethyl)pyridin-3-yl)-1-methyl-1-(2-(1-methyl-1H-imidazo[1,2-b]pyrazole-7-carbonyl)-2-azaspiro[3.3]heptan-6-yl)urea], the figures for the Ki at DDR2 and on DDR1 were 25 to 100 nM and 5 to 25 nM, respectively.

As to `Cn1ccn2ncc(C(=O)N3CC4(CC(OC(=O)Nc5cc(C(F)(F)F)cnn5)C4)C3)c12` [Example 311, 2-(1-methyl-1H-imidazo[1,2-b]pyrazole-7-carbonyl)-2-azaspiro[3.3]heptan-6-yl(5-(trifluoromethyl)pyridazin-3-yl)carbamate], the Ki on DDR2 is 5 to 25 nM; on DDR1 it was less than 5 nM.

Turning to `COc1c(CO)cc(C(F)(F)F)cc1NC(=O)NC1CC2(C1)CN(c1cnc3[nH]ncc3c1)C2` [Example 312, 1-(2-(1H-pyrazolo[3,4-b]pyridin-5-yl)-2-azaspiro[3.3]heptan-6-yl)-3-(3-(hydroxymethyl)-2-methoxy-5-(trifluoromethyl)phenyl)urea], the figures for the Ki at DDR2 and on DDR1 were 5 to 25 nM and less than 5 nM, respectively.

Source of the values: patent publication US20260285855A1, “HETEROARYL DERIVATIVES AS DDRS INHIBITORS” (CHIESI FARMACEUTICI S.P.A., priority 2023, published 2026).
